Test results reported in PMC8286840, “Identifying SARS-CoV-2 antiviral compounds by screening for small molecule inhibitors of Nsp3 papain-like protease” (Biochemical Journal, 2021).
Structures can show the parent of a compound that is named as a salt. Where two headings read alike, the source gives them in different places.

Key:
[1] = target: T1, SARS-CoV-2 PLpro (nsp3 1564–1878) (Severe acute respiratory syndrome coronavirus 2, UniProt P0DTD1); test: biochemical; set-up: FRET-quenched peptide (Pro3) cleavage by PLpro, 10 min pre-incubation, slope over 20 min, normalised to no-compound control; details: low concentration screen, read-out: % of control remaining
[2] = target: T1, SARS-CoV-2 PLpro (nsp3 1564–1878); test: biochemical; set-up: FRET-quenched peptide (Pro3) cleavage by PLpro, 10 min pre-incubation, slope over 20 min, normalised to no-compound control; details: high concentration screen, read-out: % of control remaining

Q: How did the remaining activity at 1.25 µM ([1]; Well no.=692) turn out when `CC(C)C[C@H](NC(=O)[C@H](O)[C@H](N)Cc1ccccc1)C(=O)O` [Epibestatin hydrochloride] was run?
A: The remaining activity at 1.25 µM was 96.8%.

Q: What about the remaining activity at 3.75 µM ([2]; Well no.=692) of the same compound?
A: The remaining activity at 3.75 µM was 93.6%.

Q: `O=C(O[C@@H]1Cc2c(O)cc(O)cc2O[C@@H]1c1cc(O)c(O)c(O)c1)c1cc(O)c(O)c(O)c1` [Epigallocatechin gallate] was tested. Which remaining activity at 1.25 µM ([1]; Well no.=3895) did it give?
A: Its remaining activity at 1.25 µM is 98.4%.

Q: And the remaining activity at 3.75 µM ([2]; Well no.=3895)?
A: Its remaining activity at 3.75 µM is 101%.

Q: For `Oc1cc(O)c2c(c1)O[C@H](c1cc(O)c(O)c(O)c1)[C@H](O)C2` [Epigallocatechin], which remaining activity at 1.25 µM ([1]; Well no.=3277) is on record?
A: The remaining activity at 1.25 µM was 102%.

Q: And the remaining activity at 3.75 µM ([2]; Well no.=3277)?
A: Its remaining activity at 3.75 µM is 101%.

Q: With `NC1=NCC2c3ccccc3Cc3ccccc3N12` (stereo not shown) [Epinastine] as the compound, how does the remaining activity at 1.25 µM ([1]; Well no.=6611) read?
A: The remaining activity at 1.25 µM was 96%.

Q: What about the remaining activity at 3.75 µM ([2]; Well no.=6611) of the same compound?
A: Its remaining activity at 3.75 µM is 94.8%.

Q: `CNC[C@H](O)c1ccc(O)c(O)c1` [Epinephrine bitartrate (Adrenalinium)] was tested. Which remaining activity at 1.25 µM ([1]; Well no.=5254) did it give?
A: Its remaining activity at 1.25 µM is 105%.

Q: And the remaining activity at 3.75 µM ([2]; Well no.=5254)?
A: Its remaining activity at 3.75 µM is 101%.

Q: For `COc1cccc2c1C(=O)c1c(O)c3c(c(O)c1C2=O)C[C@@](O)(C(=O)CO)C[C@@H]3O[C@H]1C[C@H](N)[C@@H](O)[C@H](C)O1` [Epirubicin HCl], which remaining activity at 1.25 µM ([1]; Well no.=5141) is on record?
A: The remaining activity at 1.25 µM was 106%.

Q: What about the remaining activity at 3.75 µM ([2]; Well no.=5141) of the same compound?
A: Its remaining activity at 3.75 µM is 107%.

Q: With `COC(=O)[C@@H]1CC2=CC(=O)CC[C@]2(C)[C@@]23O[C@@H]2C[C@@]2(C)[C@@H](CC[C@@]24CCC(=O)O4)[C@H]13` [Eplerenone] as the compound, how does the remaining activity at 1.25 µM ([1]; Well no.=5343) read?
A: The remaining activity at 1.25 µM was 97.5%.

Q: And the remaining activity at 3.75 µM ([2]; Well no.=5343)?
A: The remaining activity at 3.75 µM was 96.5%.

Q: For `C/C(=C\c1csc(C)n1)[C@@H]1C[C@@H]2O[C@@H]2CCC[C@H](C)[C@H](O)[C@@H](C)C(=O)C(C)(C)[C@@H](O)CC(=O)O1` [Epothilone A], which remaining activity at 1.25 µM ([1]; Well no.=5157) is on record?
A: Its remaining activity at 1.25 µM is 95.3%.

Q: What about the remaining activity at 3.75 µM ([2]; Well no.=5157) of the same compound?
A: Its remaining activity at 3.75 µM is 93.4%.

Q: What does the source list for `CCCCCCCC[C@H]1O[C@H]1CCCCCCCC(=O)O` [Epoxy-oleic acid]?
A: remaining activity at 1.25 µM ([1]; Well no.=4569): 96.6%; remaining activity at 3.75 µM ([2]; Well no.=4569): 103%

Q: What does the source list for `CCCCc1ncc(/C=C(\Cc2cccs2)C(=O)O)n1Cc1ccc(C(=O)O)cc1` [Eprosartan (mesylate)]?
A: remaining activity at 1.25 µM ([1]; Well no.=8191): 105%; remaining activity at 3.75 µM ([2]; Well no.=8191): 105%

Q: `CCCCc1ncc(/C=C(\Cc2cccs2)C(=O)O)n1Cc1ccc(C(=O)O)cc1` [Eprosartan mesylate] was tested. Which remaining activity at 1.25 µM ([1]; Well no.=1882) did it give?
A: Its remaining activity at 1.25 µM is 98.4%.

Q: And the remaining activity at 3.75 µM ([2]; Well no.=1882)?
A: Its remaining activity at 3.75 µM is 99.1%.

Q: What does the source list for `Oc1ccc([C@H]2COc3cc(O)ccc3C2)cc1` [Equol]?
A: remaining activity at 1.25 µM ([1]; Well no.=5252): 99.7%; remaining activity at 3.75 µM ([2]; Well no.=5252): 99.3%

Q: How did the remaining activity at 1.25 µM ([1]; Well no.=6732) turn out when `CCOc1ccccc1-n1c(C(C)N2CCN(C(=O)COc3ccc(Cl)cc3)CC2)nc2ccccc2c1=O` (stereo not shown) [Erastin] was run?
A: The remaining activity at 1.25 µM was 98.2%.

Q: And the remaining activity at 3.75 µM ([2]; Well no.=6732)?
A: Its remaining activity at 3.75 µM is 96.5%.

Q: With `CC(C)[C@@]1(NC(=O)[C@@H]2C=C3c4cccc5[nH]cc(c45)C[C@H]3N(C)C2)O[C@@]2(O)[C@@H]3CCCN3C(=O)[C@H](Cc3ccccc3)N2C1=O` [Ergocristine] as the compound, how does the remaining activity at 1.25 µM ([1]; Well no.=561) read?
A: The remaining activity at 1.25 µM was 105%.

Q: What about the remaining activity at 3.75 µM ([2]; Well no.=561) of the same compound?
A: The remaining activity at 3.75 µM was 102%.

Q: With `CC(C)[C@@H](C)/C=C/[C@@H](C)[C@H]1CC[C@H]2C3=CC=C4C[C@@H](O)CC[C@]4(C)[C@H]3CC[C@]12C` [Ergosterol] as the compound, how does the remaining activity at 1.25 µM ([1]; Well no.=5194) read?
A: The remaining activity at 1.25 µM was 102%.

Q: And the remaining activity at 3.75 µM ([2]; Well no.=5194)?
A: The remaining activity at 3.75 µM was 101%.

Q: What does the source list for `CN1C[C@H](C(=O)N[C@]2(C)O[C@@]3(O)[C@@H]4CCCN4C(=O)[C@H](Cc4ccccc4)N3C2=O)C=C2c3cccc4[nH]cc(c34)C[C@H]21` [Ergotamine]?
A: remaining activity at 1.25 µM ([1]; Well no.=1726): 99.5%; remaining activity at 3.75 µM ([2]; Well no.=1726): 98.3%

Q: `C[N+](C)(C)[C@@H](Cc1c[nH]c(=S)[nH]1)C(=O)[O-]` [Ergothioneine] was tested. Which remaining activity at 1.25 µM ([1]; Well no.=1612) did it give?
A: Its remaining activity at 1.25 µM is 100%.

Q: And the remaining activity at 3.75 µM ([2]; Well no.=1612)?
A: The remaining activity at 3.75 µM was 98.8%.

Q: Which results are given for `C[C@@H]1O[C@@H](OC[C@H]2O[C@@H](Oc3cc(O)c4c(c3)O[C@H](c3ccc(O)c(O)c3)CC4=O)[C@H](O)[C@@H](O)[C@@H]2O)[C@H](O)[C@H](O)[C@H]1O` [Eriocitrin]?
A: remaining activity at 1.25 µM ([1]; Well no.=3257): 98.6%; remaining activity at 3.75 µM ([2]; Well no.=3257): 97.1%

Q: Which results are given for `O=C1C[C@@H](c2ccc(O)c(O)c2)Oc2cc(O[C@@H]3O[C@H](CO)[C@@H](O)[C@H](O)[C@H]3O)cc(O)c21` [Eriodictyol-7-O-glucoside]?
A: remaining activity at 1.25 µM ([1]; Well no.=3261): 96.6%; remaining activity at 3.75 µM ([2]; Well no.=3261): 95.5%

Q: Which results are given for `O=C1C[C@@H](c2ccc(O)c(O)c2)Oc2cc(O)cc(O)c21` [Eriodictyol]?
A: remaining activity at 1.25 µM ([1]; Well no.=3259): 104%; remaining activity at 3.75 µM ([2]; Well no.=3259): 103%
